Reference: patent US20230227449A1, “AMIDOPYRIMIDONE DERIVATIVES” (Hoffmann-La Roche Inc., priority 2020, published 2023)

These molecules were tested against Recombinant human Mat2a (Homo sapiens, UniProt P31153) (assay: Determination of Mat2A activity (384 well absorbance-based assay, Biomol Green)). Conditions: 12.5 nM Mat2A, 100 μM ATP and Methionine, 2% DMSO, 120 minutes at RT, absorbance at 635 nm.
Type: biochemical
Procedure, shortened: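 Recombinant human Mat2A (12.5 nM) was preincubated with compound for 15 min at RT in HEPES pH 7.5 buffer with 2% DMSO. The reaction was started with 100 μM each of ATP and methionine and ran 120 min at RT. Phosphate was detected with Biomol Green by absorbance at 635 nm.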

Chain of Recombinant human Mat2a (P31153 whole entry): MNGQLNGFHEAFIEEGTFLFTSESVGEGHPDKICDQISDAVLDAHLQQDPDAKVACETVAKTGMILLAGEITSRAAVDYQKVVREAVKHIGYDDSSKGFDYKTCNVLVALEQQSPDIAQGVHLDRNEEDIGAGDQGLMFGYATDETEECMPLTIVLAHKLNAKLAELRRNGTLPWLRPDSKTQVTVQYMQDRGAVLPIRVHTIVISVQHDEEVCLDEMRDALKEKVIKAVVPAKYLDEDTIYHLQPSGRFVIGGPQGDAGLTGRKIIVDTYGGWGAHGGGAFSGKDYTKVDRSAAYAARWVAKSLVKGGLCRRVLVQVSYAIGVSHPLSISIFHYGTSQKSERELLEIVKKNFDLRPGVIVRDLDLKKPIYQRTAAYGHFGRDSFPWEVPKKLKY

Compared with `Cc1ccccc1-n1c(=O)nc(N)c2ccc(C(C)(C)C)nc21` [Example 3, 4-amino-7-(tert-butyl)-1-(o-tolyl)pyrido[2,3-d]pyrimidin-2(1H)-one], `Nc1nc(=O)n(-c2ccccc2F)c2nc(C3CC3)ccc12` [Example 79, 4-amino-7-cyclopropyl-1-(2-fluorophenyl)pyrido[2,3-d]pyrimidin-2(1H)-one] is lower in IC50: 22 nM for the first, < 13 nM for the second. The second is the more potent here.

Compared with `Nc1nc(=O)n(-c2cccc(F)c2)c2nc(C3CC3)ccc12` [Example 80, 4-amino-7-cyclopropyl-1-(3-fluorophenyl)pyrido[2,3-d]pyrimidin-2(1H)-one], `Nc1nc(=O)n(-c2ccc(F)c(F)c2)c2nc(C3CC3)ccc12` [Example 147, 4-amino-7-cyclopropyl-1-(3,4-difluorophenyl)pyrido[2,3-d]pyrimidin-2 (1H)-one] is higher in IC50: < 13 nM for the first, 31 nM for the second.

`CCc1ccc2c(N)nc(=O)n(-c3cccnc3C)c2c1` [Example 48, 4-amino-7-ethyl-1-(2-methylpyridin-3-yl)quinazolin-2(1H)-one] and `Cc1ncccc1-n1c(=O)nc(N)c2ccc(C3CCC3)nc21` [Example 53, 4-amino-7-cyclobutyl-1-(2-methyl-3-pyridyl)pyrido[2,3-d]pyrimidin-2-one] cannot be ordered by IC50: < 13 nM for the first, < 13 nM for the second.

Going from `Nc1nc(=O)n(-c2cccnc2Cl)c2cc(OC(F)F)ccc12` [Example 137, 4-amino-1-(2-chloropyridin-3-yl)-7-(difluoromethoxy)quinazolin-2 (1H)-one] to `Cc1c(F)cccc1-n1c(=O)nc(N)c2ccc(OC(F)(F)F)cc21` [Example 159, 4-amino-1-(3-fluoro-2-methylphenyl)-7-(trifluoromethoxy)quinazolin-2-one], the IC50 rises from < 13 nM to 19 nM. The first is the more potent here.

For `Cc1c(Cl)cccc1-n1c(=O)nc(N)c2ccc(C3CC3)nc21` [Example 129, 4-amino-1-(3-chloro-2-methylphenyl)-7-cyclopropylpyrido[2,3-d]pyrimidin-2-one], the IC50 was < 13 nM.
